Consider three molecules from patent US20240350521A1, “COMPOSITIONS AND METHODS FOR PREVENTING OR TREATING PRECOCIOUS PUBERTY” (TAIPEI MEDICAL UNIVERSITY, priority 2023, published 2024).

For data set [1], the system named is female neonate Sprague-Dawley rats. Briefly: Animal Experiment 1: puberty-related time points (vaginal opening, estrous cycle) in danazol-induced PP rats. The format is in vivo. The protocol:
A total of 129 female neonate Sprague-Dawley rats were housed in a humidity (67±1.5%) and temperature (24±2° C.)-controlled housing room of the Taipei Medical University's Laboratory Animal Center with a 12-hour light/dark cycle. They had free access to food and water.
(§1) Such rats were divided into Control, Danazol, MAG (monoammonium glycyrrhizinate), Danazol+Low-MAG (100 μg/kg/day), Danazol+Medium-MAG (200 μg/kg/day), and Danazol+High-MAG (400 μg/kg/day) groups. The day at birth was termed postnatal day (PND). Litters belonging to danazol-induced PP groups were given a single subcutaneous injection of 300 μg danazol (Sigma-Aldrich) dissolved in 30 μL vehicle composed of propylene glycerol and ethanol (1:1)^[7]. MAG was administered using oral gavage since PND 13. Offspring were weaned onto a normal chow diet and water at PND 21. Body weight was measured daily. The rats were examined daily for the vaginal opening, which was considered as a marker of pubertal onset.
(§2) MAG was prepared freshly at the beginning of the experiment daily by mixing MAG powder with sterilized water. The volume fed each day was calculated based on the MAG solubility (20 mg/mL), maximum volume tolerated (10 mL/kg/time), intended dose (either 100, 200, or 400 μg/kg/day), and the rat's body weight on that day. Those who were not in the MAG-fed groups were fed with the same volume of sterilized water. MAG doses were chosen based on existing guidelines for safe dosage in humans and previous work in animals. In more detail, the doses were about 5 to 20 times lower than the no-observed-adverse-effect-levels (NOAELs)^[8]. They reflect the normal physiological intake of this sweetener.
In this experiment, rats were fed with MAG daily until the end of experiment to maintain the long-term effect of drug tested. Vaginal smear was performed daily until they established three consecutive regular 4- or 5-day-cycles. The day of vaginal opening was the primary outcome. Moreover, the day of the setup of the regular cycle and the day of the establishment of 3 regular cycles were observed as secondary outcomes. The first day of diestrus or metestrus of the first cycle in the 3 consecutive regular estrous cycles was determined as the day of the setup of the regular cycle^[7]. The last day of diestrus of the last cycle in the 3 consecutive regular estrous cycles was determined as the day of establishment of 3 regular cycles^[9].
(§3) Data were presented as means±standard deviation. Statistical analysis was performed on raw data using one-way analysis of variance (ANOVA). Comparisons among groups were made using the post hoc Tukey-HSD test. Day of vaginal opening, day of setup of regular cycle and day of establishment of 3 regular cycles were analyzed using survival analysis and were compared using the log-rank test. A two-tailed p-value<0.05 was considered significant.

The test system is the same in data set [2]. The experiment in a line: Animal Experiment 2: serum estrogen level on sacrifice day. The format is in vivo. The text has this: In this experiment, rats were raised until the model group (danazol) experienced vaginal opening. At that time, all of the rats were then sacrificed to (1) compare the differences between serum estrogen and luteinizing hormone (LH) levels; (2) compare the mRNA expression of GnRHa, k, Lin28a, Lin28b, let7a, let7b, GPR54, netrin-1, UNC5C, and MKRN3 in the hypothalamus using qPCR; and (3) compare the number of GnRH and kisspeptin neurons in the hypothalamus using immunohistochemistry (IHC).
(§4) Overnight fasting blood samples for glucose measurement were collected from tail veins two days before sacrifice. Blood samples for LH, estrogen, and other routine laboratory tests were collected from the abdominal aorta when sacrificing. Insulin resistance was then estimated using the triglyceride glucose (TyG) index. […] Also, the fecal samples were collected during these days to analyze gut microbiome, short chain fatty acids (SCFA), and reserve material for fecal microbiota transplantation (FMT) in Experiment 3.
Blood glucose in rodents was measured using the BioSystem glucose GOD/Peroxidase kit. LH levels were measured using the Enzo LH ELISA kit following the manufacturer's instructions. Samples for estrogen and other routine test were sent to a clinical laboratory.

Data set [3] deals with mice (recipient) raised in a specific-pathogen free environment. The experiment in a line: Animal Experiment 3: fecal microbiota transplantation (FMT), day of vaginal opening. The format is in vivo. Particulars: Danazol group, n = 6. The protocol:
In this experiment, the fecal material collected in Experiment 2 (from donor) was transplanted to mice (recipient) raised in a specific-pathogen free environment. Pathogen free mice model was established by feeding 25 mL of cocktail antibiotics, which contain 50 mg of ampicillin, 50 mg of neomycin, 50 mg of metronidazole, and 25 mg of vancomycin.
as §3

Another data set concerns precocious puberty. The experiment in a line: Taiwan Puberty Longitudinal Study cohort: sweetener intake and risk of precocious puberty (logistic regression). The format is in vivo, human. The conditions noted are these: for OR of precocious puberty: adjusted model. The protocol:
The Taiwan Puberty Longitudinal Study (TPLS) was a multicenter project involving several hospitals in Taiwan. A total of more than 2,000 female adolescents aged from 6 to 16 years and male adolescents aged from 9 to 17 years had been recruited from pediatric endocrine clinics since 2018. Anthropometric measurements, pubertal stages exams, and interviews about physical activity and sleep quality were conducted quarterly. A comprehensive evaluation, including 24-hour food recall, fasting blood test, and parental interviews about their children's physical activity and sleep quality, was performed annually. Participants were followed up until reaching the late pubertal stages. Thorough market search, a comprehensive and semiquantitative food frequency questionnaire (FFQ), was created for glycyrrhizin intake evaluation in advance. A total of 39 glycyrrhizin-containing food and beverage products were listed in this non-nutritive sweetener food frequency questionnaire ([…])^[1]. The questionnaire was used to screen the level of glycyrrhizin consumption. The interval scale for frequency was measured as never or a number of times per day or per week. Glycyrrhizin consumption was described as the proportion relative to acceptable daily intake (ADI) set by the Joint FAO/WHO Expert Committee on Food Additives[2]. The glycyrrhizin exposure dose in % ADI was finally categorized as tertiles, ranging from T1 (0 to 0.0006), T2 (0.0006 to 0.002) to T3 (>0.002). […] Most of the added sugar came from sugar-sweetened beverages (SSB). The added-sugar exposure dose in % ADI was also categorized as tertiles, ranging from T1 (0 to 0.0013), T2 (0.0013 to 0.0044) to T3 (>0.0044). Precocious puberty (PP) was diagnosed in the presence of the following criteria: secondary sexual characteristics happen before the age of 8 years old, bone age advance greater than 2 years above chronological age, and peak luteinizing hormone (LH)≥5 after the gonadotropin-releasing hormone (GnRH) stimulation test^[3]. Body mass index (BMI) was calculated as weight in kilograms divided by height in meters squared and was then transformed into z-scores (zBMI) based on age- and sex-related reference charts for Taiwanese children^[4]. Participants were asked for their habitual activities, and the amount of time they spend for specific physical activities. The intensity of each activity was described as metabolic equivalent of task (MET)^[5]. Daily metabolic equivalent value (METD) was calculated by summarizing mean of the standard MET of each activity multiplied by the average daily duration. The sleep quality scores, ranging from 0 to 21, were assessed by the Pittsburgh Sleep Quality Index (PSQI) through a self-reported questionnaire^[6]. The total energy intake daily in kcal was estimated by the summary of energy intake from three major macronutrients, including carbohydrates, fat, and proteins. Parental education was assessed by interviews and classified as “senior high school and below,” “college,” or “graduate school and higher.” Odds ratios (ORs) for precocious puberty in participants consumed different doses of glycyrrhizin and added sugar were calculated from generalized linear models with logistic regression using glm( ) function. Models were adjusted for gender, age, zBMI, exercise time, sleep quality, total energy intake, and parental education. Atwo-tailed p-value of <0.05 was considered statistically significant. All analyses were performed using R software (version 4.0.2; RStudio; R Foundation for Statistical Computing, Inc., Boston, MA, USA).

Data set [4] concerns female neonate Sprague-Dawley rats. Briefly: Body weight, reproductive organ coefficient weights, routine laboratory safety tests and TyG index in rats. The format is in vivo. The protocol: as §1, §4
On the days of the vaginal opening in the model group, all animals were exsanguinated with normal saline following anesthesia. After perfusion, the hypothalamus was retrieved. Half of them were fixed in the 10% neutral-buffered formalin for IHC experiments, while the remaining half was embedded in RNAprotect reagent for qPCR experiments later. […]
Blood glucose in rodents was measured using the BioSystem glucose GOD/Peroxidase kit. LH levels were measured using the Enzo LH ELISA kit following the manufacturer's instructions. […]
Data were presented as means±standard deviation. […] Day of vaginal opening, day of setup of regular cycle and day of establishment of 3 regular cycles were analyzed using survival analysis and were compared using the log-rank test. […]

Data set [5] in a line: MAG solubility in sterilized water. The format is physicochemical. Particulars: MAG powder mixed with sterilized water. The protocol: as §2
The mark [6] stands for this setting: Danazol group (single s.c. 300 μg danazol), n = 6.
[7] abbreviates: Danazol + High-MAG (400 μg/kg/day, oral gavage), n = 15.
The mark [8] stands for this setting: Danazol + Low-MAG (100 μg/kg/day, oral gavage), n = 8.
Setting [9] is: Danazol + Med-MAG (200 μg/kg/day, oral gavage), n = 8.
Setting [10] is: MAG group (no danazol), oral gavage since PND 13, n = 5.

SMILES strings stand for the structures.

`C#C[C@]1(O)CC[C@H]2[C@@H]3CCC4=Cc5oncc5C[C@]4(C)[C@H]3CC[C@@]21C` [Danazol, danazol, reference compound]: in data set [1] (setting [6]), the “Day of establishment of 3 regular cycles” value is on record as 38.17 ± 1.17, the “Day of setup of regular cycle” value stood at 27.67 ± 1.51 and the “Day of vaginal opening” value came out at 23.00 ± 0.00. Besides, in data set [2] (Danazol group), the Serum estrogen level result is “trend towards higher values”. Besides, in data set [3], the “Day of vaginal opening (PND)” value came out at 24.33 PND.
As to `CC1(C)[C@@H](O[C@H]2O[C@H](C(=O)O)[C@@H](O)[C@H](O)[C@H]2O[C@@H]2O[C@H](C(=O)O)[C@@H](O)[C@H](O)[C@H]2O)CC[C@]2(C)[C@H]3C(=O)C=C4[C@@H]5C[C@@](C)(C(=O)O)CC[C@]5(C)CC[C@@]4(C)[C@]3(C)CC[C@@H]12` [Glycyrrhizin, glycyrrhizin], the “OR of precocious puberty” value in the data set on precocious puberty (Female, exposure tertile T1 vs no intake) is listed as 0.479; with precocious puberty (Female, exposure tertile T2 vs no intake), 0.826; in the data set on precocious puberty (Female, exposure tertile T3 vs no intake), 0.969; in the data set on precocious puberty (Male, exposure tertile T1 vs no intake) it was 1.384; in the data set on precocious puberty (Male, exposure tertile T2 vs no intake) it was 0.422; in the data set with precocious puberty (Male, exposure tertile T3 vs no intake), 0.656. In addition, the “OR of precocious puberty” value in the data set with precocious puberty (Total, exposure tertile T1 (% ADI: glycyrrhizin 0 to 0.0006, added sugar 0 to 0.0013) vs no intake) came to 0.607; in the data set with precocious puberty (Total, exposure tertile T2 (% ADI: glycyrrhizin 0.0006 to 0.002, added sugar 0.0013 to 0.0044) vs no intake) it was 0.687; in the data set with precocious puberty (Total, exposure tertile T3 (% ADI: glycyrrhizin >0.002, added sugar >0.0044) vs no intake), 0.857. Besides, the “Risk of PP after full adjustment” value with precocious puberty (human cohort, consumption vs no intake) is on record as “reduce the risk of PP”.
`CC1(C)[C@@H](O[C@H]2O[C@H](C(=O)O)[C@@H](O)[C@H](O)[C@H]2O[C@@H]2O[C@H](C(=O)O)[C@@H](O)[C@H](O)[C@H]2O)CC[C@]2(C)[C@H]3C(=O)C=C4[C@@H]5C[C@@](C)(C(=O)O)CC[C@]5(C)CC[C@@]4(C)[C@]3(C)CC[C@@H]12.N` [MAG, monoammonium glycyrrhizinate]: the “Day of establishment of 3 regular cycles” value in data set [1] (setting [7]) turned out to be 41.47 ± 2.85; in data set [1] (setting [8]) it was 44.13 ± 3.68; in data set [1] (setting [9]), 45.88 ± 4.19; in data set [1] (setting [10]), 49.00 ± 2.55. Further, the “Day of setup of regular cycle” value in data set [1] (setting [7]) is 28.93 ± 3.62; in data set [1] (setting [8]), 31.50 ± 3.63; in data set [1] (setting [9]), 33.38 ± 4.07; in data set [1] (setting [10]), 37.40 ± 3.44. Besides, the “Day of vaginal opening” value in data set [1] (setting [7]) is listed as 24.00 ± 2.45; in data set [1] (setting [8]) it was 25.13 ± 3.60; in data set [1] (setting [9]), 27.50 ± 5.01; in data set [1] (setting [10]), 32.60 ± 2.07. The “Protection against PP over the whole estrous cycle” value in data set [1] (danazol-induced PP rats, most obvious effects with Low- and Medium-MAG groups) is “protected rats against PP following a dose-dependent manner”. The “Liver enzyme, renal function, albumin, electrolyte panel and lipid profiles” value in data set [4] (all p>0.05) is on record as “no safety concerns”. In addition, the “Body weight during puberty” value in data set [4] (among groups, p=0.448) is recorded as “no difference”. Besides, the “Insulin resistance (TyG index) at the end of the experiment” value in data set [4] (between groups, High-MAG vs Medium-MAG p=0.048) was “did not differ between groups, with the exception of a higher value in High-MAG than that of Medium-MAG”. Besides, the Serum estrogen level result in data set [2] (High-MAG group (danazol + 400 μg/kg/day)) is reported as “trend towards higher values”. In data set [5], this molecule displayed an MAG solubility of 20 mg/mL.
